Measured values: patent publication US9187351B2, “Water treatment” (KING TECHNOLOGY INC., priority 2004, dated 2015)

Tests used:
[1] = levels of dissolved silver with halogenated hydantoins and a source of silver; type: physicochemical
From the text: Hydantoin structures are also known as complexing agents in silver-plating processes (R. J. Morrissey, U.S. Patent Application Publication no. 2005/0183961). […] While not fully understood it is believed that the aforementioned increased in solubility is due to a soluble complex or association between silver and hydantoin ring structures since it has been found the silver remains soluble to a higher degree than expected thus making more silver ions available for killing harmful microorganism.
DMH is a chemical derivative of hydantoin comprising of a hydantoin ring with two methyl groups attached at the number five position of the ring. DMH is a component of Bromochlordimethyl hydantoin (BCDMH), organic source bromine utilized for disinfecting spa water. […] Additional research performed by the Applicant seems to indicate that the DMH portion of the BCDMH molecule alone may be responsible for the increased solubility of silver. The mechanism of increased silver solubility appears to involve the formation of a DMH/silver complex that has a higher solubility in water than silver salts such as […] or silver chloride. It is should be noted that the antimicrobial activity tends to increase with soluble silver concentration.

[2] = system: bacteria in the pool; assay: 32,000 gallon outdoor pool sanitized with FROG minerals, chlorine and DMH; bacteria monitored over three months; conditions: about 10 ppm to 12 ppm DMH added to pool treated with FROG minerals (silver chloride on limestone carrier) and chlorine; free chlorine as low as 0.1 ppm; three month period
Protocol: A 32,000 gallon outdoor pool was sanitized using commercially available FROG™ minerals and chlorine. The FROG™ Minerals included silver chloride on a limestone carrier. In addition to the conventional sanitizing treatment using silver chloride and chlorine sufficient DMH was added to the pool to bring the DMH content of the pool to a level of about 10 ppm to 12 ppm DMH in the pool. The free chlorine, total chlorine, pH and the bacteria in the pool were monitored over a three month period. During the period both humans and animals swam in the pool.

[3] = cited from earlier work
[4] = system: microbial growth; assay: single microbiological assay of the antimicrobial activity of the synthesized DMH/Ag complex; type: cell-based
[5] = used in conjunction with a source of silver

With `CC1(C)C(=O)N(Cl)C(=O)N1Br` [BCDMH, 1-bromo-3-chloro-5,5dimethylhydantoin] the “levels of dissolved silver” value ([1]; combined with silver ions in spa water containing bromine) was “higher than would be anticipated” and the “levels of dissolved silver” value [1, 5] was “tend to increase levels of dissolved silver”.
In the case of `CC1(C)C(=O)N(Cl)C(=O)N1Cl` [DCDMH, 1,3 dichloro-5,5 dimethylhydantoin], the “levels of dissolved silver” value [1, 5] is reported as “tend to increase levels of dissolved silver”.
For `CC1(C)NC(=O)NC1=O` [DMH, 5,5-dimethylhydantoin], the total bacteria count [2] was “zero”.
For `O=C1CNC(=O)N1` [Hydantoin], the solubility in water [3] is listed as “slightly soluble in water”.
With “Silver dimethylhydantoin [synthesized DMH/Ag complex]” the “antimicrobial activity compared to the equivalent level of silver used alone” value ([4]; synthesized complex) was “greater antimicrobial activity” and the “control of microbial growth” value ([4]; without added source of halide) was “has the potential to control microbial growth without the need for an added source of halide”.
